Where two headings read alike, the source gives them in different places.
Columns and labels:
Serum-Lipoproteine = experiment: Change of serum and lipoprotein-fraction cholesterol in rats after 7 days of oral treatment (ultracentrifuge fractionation, CHOD-PAP cholesterol); type: in vivo, männlichen Wistar-Ratten; conditions: for change in vivo at 30 mg/kg / change in vivo at 1 mg/kg / change in vivo at 10 mg/kg / change in vivo at 20 mg/kg / change in vivo at 3 mg/kg / change in vivo at 100 mg/kg: Rattus norvegicus, 168 h, oral (gavage), 7 days, male Wistar rats; for change in vivo at 30 mg/kg: 30 mg/kg / Tag; for change in vivo at 1 mg/kg: 1 mg/kg / Tag; for change in vivo at 10 mg/kg: 10 mg/kg / Tag; for change in vivo at 20 mg/kg: 20 mg/kg / Tag; for change in vivo at 3 mg/kg: 3 mg/kg / Tag; for change in vivo at 100 mg/kg: 100 mg/kg / Tag
Text: (§1) Die Wirkung der angeführten Verbindungen auf die Serum- Lipoproteine wurde an männlichen Wistar-Ratten untersucht, die 7 Tage per Schlundsonde mit den angeführten in Polyäthylenglykol 400 suspendierten Verbindungen behandelt wurden. Außerdem wurde eine Kontrollgruppe, die nur das Lösungsmittel Polyäthylenglykol 400 erhielt, mitgeführt, sowie bei den meisten Versuchen eine Ratten-Gruppe mit dem Standardhypolipidämikum Clofibrat. Pro Gruppe wurden in der Regel 10 Tiere eingesetzt, denen am Ende der Behandlung das Blut nach leichter Äthernarkose aus dem Orbitalplexus entnommen wurde. Aus dem gewonnenen Ratten-Serum wurden die Serum- Lipoproteine in der präparativen Ultrazentrifuge in folgende Dichteklassen getrennt: VLDL < 1,006; LDL 1,006 bis 1,04; HDL 1,04 bis 1,21
Da nämlich im Gegensatz zum Menschen die Serumlipoproteine der Ratte etwa 4/5 HDL-Cholesterin und nur 1/5 LDL-Cholesterin enthalten und nur sehr geringe Mengen von VLDL (beim Menschen umgekehrt etwa 2/3 LDL und VLDL und nur 1/3 bis 1/4 HDL), macht die Beurteilung einer hypolipidämischen Wir- .kung an der Ratte unbedingt eine Fraktionierung des Ratten-serums in Lipoproteinklassen erforderlich. Eine bloße Erniedrigung des Serum-Total-cholesteringehaltes an der Ratte würde nämlich nur die unerwünschte Erniedrigung der bei der Ratte vorwiegenden antiatherogenen HDL-Klasse anzeigen. Eine erwünschte Erniedrigung von LDL bei gleichzeitiger erwünschter Vermehrung von HDL hätte aber keine (wesentliche) Auswirkung auf den Totalcholesteringehalt des Ratten-Serums.
Aus den in der Ultrazentrifuge isolierten LipoproteinFraktionen wurde das darin enthaltene Cholesterin vollenzymatisch nach der CHOD-PAP-Methode mittels der Testkombination von Boehringer-Mannheim bestimmt und die Werte in µg/ml Serum umgerechnet. In der angeführten Tabelle ist die Veränderung des Lipoprotein-Cholesterins in der behandelten Gruppe gegenüber einer unter gleichen Bedingungen mitgeführten Kontrollgruppe angegeben.
Veränderung in % der Lipoproteine im Ratten-Serum nach siebentägiger oraler Applikation der Verbindungen

[1] = Change of relative liver weight and liver findings in the 7-day oral rat study; type: in vivo, männlichen Wistar-Ratten; conditions: for % Veränderung des relativen Lebergewichtes: oral (gavage), 7 days, male Wistar rats
Text: Die erfindungsgemäßen Verbindungen haben wertvolle therapeutische Eigenschaften. So erniedrigen sie vor allem die Konzentration von LDL und VLDL, die HDL-Fraktion aber kaum, in vielen Fällen wird diese Fraktion sogar vermehrt. Diese Verbindungen stellen daher einen wesentlichen Fortschritt gegenüber der Vergleichsverbindung Clofibrat dar, wie aus .den nachfolgend beschriebenen Daten ersichtlich ist. Sie können daher zur Prophylaxe und Regression von arteriosklerotischen Veränderungen herangezogen werden, indem sie einen kausalen Risikofaktor ausschalten. Hierzu zählen nicht nur die primären Hyperlidämien, sondern auch gewisse sekundäre Hyperlipidämien wie sie z.B. beim Diabetes vorkommen. […] Die mit einer hypolipidämischen Wirkung verbundene unerwünschte Beeinflussung der Leber zeigt sich auch in sehr starkem Maße bei der in J.Med.Chem. 18 (1975) S. 833-836 beschriebenen Vergleichsverbindung 1-(4-Methylbenzyl)-imidazol. […] Die erfindungsgemäßen Verbindungen zeigen dieses unerwünschte Verhalten nicht.
as §1

[2] = read-out: Cholesterolveränderung in %, bezogen auf die Kontrollgruppe in den Serum-Lipoprotein-Fraktionen HDL
[3] = read-out: Cholesterolveränderung in %, bezogen auf die Kontrollgruppe in den Serum-Lipoprotein-Fraktionen LDL
[4] = read-out: Cholesterolveränderung in %, bezogen auf die Kontrollgruppe in den Serum-Lipoprotein-Fraktionen VLDL
[5] = read-out: Cholesterolveränderung in %, bezogen auf die Kontrollgruppe im Serum

C=CCc1cc(Cn2ccnc2)cc(C)c1OCc1ccc(C(O)C(C)(C)C)cc1 (centres unmarked) [Beispiel 2.2]
change in vivo at 30 mg/kg (Serum-Lipoproteine; [2]): 14% | change in vivo at 30 mg/kg (Serum-Lipoproteine; [3]): -49% | change in vivo at 30 mg/kg (Serum-Lipoproteine; [4]): -34%

Cc1cc(Cn2ccnc2)cc(C)c1OCc1ccc(C(O)C(C)(C)C)cc1 (centres unmarked) [Beispiel 2.1]
% Veränderung des relativen Lebergewichtes ([1]; 1 mg/kg / Tag): +11% | change in vivo at 1 mg/kg (Serum-Lipoproteine; [2]): 17% | change in vivo at 1 mg/kg (Serum-Lipoproteine; [3]): -53% | change in vivo at 1 mg/kg (Serum-Lipoproteine; [4]): 17% | change in vivo at 10 mg/kg (Serum-Lipoproteine; [5]): -22% | change in vivo at 10 mg/kg (Serum-Lipoproteine; [3]): -66% | change in vivo at 10 mg/kg (Serum-Lipoproteine; [4]): -54%

COc1cc(Cn2ccnc2)cc(OC)c1OCc1ccc(C(=O)C(C)(C)C)cc1 [Beispiel 1.8]
change in vivo at 20 mg/kg (Serum-Lipoproteine; [5]): -19% | change in vivo at 20 mg/kg (Serum-Lipoproteine; [2]): -4% | change in vivo at 20 mg/kg (Serum-Lipoproteine; [3]): -43% | change in vivo at 20 mg/kg (Serum-Lipoproteine; [4]): -19%

Cc1cc(Cn2cccn2)cc(C)c1OCc1ccc(C(=O)C(C)(C)C)cc1 [Beispiel 1.21]
change in vivo at 30 mg/kg (Serum-Lipoproteine; [5]): 0% | change in vivo at 30 mg/kg (Serum-Lipoproteine; [3]): -35% | change in vivo at 30 mg/kg (Serum-Lipoproteine; [4]): -62%

Cc1cc(Cn2ccnc2)cc(Cl)c1OCc1ccc(C(=O)C(C)(C)C)cc1 [Beispiel 1, 4-[2-Chlor-4-(-imidazol-1-ylmethyl)-6-methylphenoxymethyl]-phenyl-tert.-butyl-keton]
% Veränderung des relativen Lebergewichtes ([1]; 1 mg/kg / Tag): +4% | % Veränderung des relativen Lebergewichtes ([1]; 3 mg/kg / Tag): +9% | change in vivo at 1 mg/kg (Serum-Lipoproteine; [2]): 8% | change in vivo at 1 mg/kg (Serum-Lipoproteine; [3]): -40% | change in vivo at 1 mg/kg (Serum-Lipoproteine; [4]): 0% | change in vivo at 3 mg/kg (Serum-Lipoproteine; [5]): -12% | change in vivo at 3 mg/kg (Serum-Lipoproteine; [2]): 3% | change in vivo at 3 mg/kg (Serum-Lipoproteine; [3]): -42% | change in vivo at 3 mg/kg (Serum-Lipoproteine; [4]): 0% | change in vivo at 10 mg/kg (Serum-Lipoproteine; [5]): -17% | change in vivo at 10 mg/kg (Serum-Lipoproteine; [2]): -5% | change in vivo at 10 mg/kg (Serum-Lipoproteine; [3]): -52% | change in vivo at 10 mg/kg (Serum-Lipoproteine; [4]): 0%

Cc1cc(Cn2ccnc2)cc(Cl)c1OCc1ccc(C(O)C(C)(C)C)cc1 (stereo not drawn) [Beispiel 5, α-Tert.-butyl-4-[2-Chlon-6-methyl-4-(imidazol-1-ylmekthyl)-phenoxymethyl]-benzylalkohol]
% Veränderung des relativen Lebergewichtes ([1]; 3 mg/kg / Tag): +13% | change in vivo at 1 mg/kg (Serum-Lipoproteine; [3]): -39% | change in vivo at 1 mg/kg (Serum-Lipoproteine; [4]): -13% | change in vivo at 3 mg/kg (Serum-Lipoproteine; [2]): 18% | change in vivo at 3 mg/kg (Serum-Lipoproteine; [3]): -47% | change in vivo at 3 mg/kg (Serum-Lipoproteine; [4]): -10% | change in vivo at 10 mg/kg (Serum-Lipoproteine; [5]): -23% | change in vivo at 10 mg/kg (Serum-Lipoproteine; [3]): -59% | change in vivo at 10 mg/kg (Serum-Lipoproteine; [4]): -46%

Cc1cc(Cn2cncn2)cc(Cl)c1OCc1ccc(C(=O)C(C)(C)C)cc1 [Beispiel 1.19]
change in vivo at 10 mg/kg (Serum-Lipoproteine; [5]): -11% | change in vivo at 10 mg/kg (Serum-Lipoproteine; [3]): -29% | change in vivo at 10 mg/kg (Serum-Lipoproteine; [4]): -35%

CC(C)(C)C(=O)c1ccc(COc2c(Cl)cc(Cn3ccnc3)cc2Cl)cc1 [Beispiel 1.6]
change in vivo at 10 mg/kg (Serum-Lipoproteine; [2]): 7% | change in vivo at 10 mg/kg (Serum-Lipoproteine; [3]): -32%

C=CCc1cc(Cn2ccnc2)cc(Cl)c1OCc1ccc(C(=O)C(C)(C)C)cc1 [Beispiel 1.7]
change in vivo at 20 mg/kg (Serum-Lipoproteine; [5]): -18% | change in vivo at 20 mg/kg (Serum-Lipoproteine; [2]): -7% | change in vivo at 20 mg/kg (Serum-Lipoproteine; [3]): -43%

CCOC(=O)C(C)(C)Oc1ccc(Cl)cc1 [Clofibrat, reference compound]
relatives Lebergewicht ([1]; rat, in vivo): starken Erhöhung des relativen Lebergewichts | change in vivo at 100 mg/kg (Serum-Lipoproteine; [5]): -29% | change in vivo at 100 mg/kg (Serum-Lipoproteine; [2]): -34% | change in vivo at 100 mg/kg (Serum-Lipoproteine; [3]): -18% | change in vivo at 100 mg/kg (Serum-Lipoproteine; [4]): -48% | Wirkung auf die Lipoproteinfraktionen (VLDL, LDL, HDL) (Serum-Lipoproteine; statement in words summarising the table, rat serum, 7 days oral): stärkere Verminderung der HDL- als der LDL-Fraktion

Cc1cc(Cn2ccnc2)cc(C)c1OCc1ccc(C(=O)c2ccc(Cl)cc2)cc1 [Beispiel 1.46]
change in vivo at 10 mg/kg (Serum-Lipoproteine; [3]): -35% | change in vivo at 10 mg/kg (Serum-Lipoproteine; [4]): -29%

Cc1cc(Cn2ccnc2)cc(C)c1OCc1ccc(C(=O)C(C)(C)CCl)cc1 [Beispiel 1.16]
change in vivo at 3 mg/kg (Serum-Lipoproteine; [2]): -11% | change in vivo at 3 mg/kg (Serum-Lipoproteine; [3]): -32% | change in vivo at 3 mg/kg (Serum-Lipoproteine; [4]): -32% | change in vivo at 10 mg/kg (Serum-Lipoproteine; [5]): -15% | change in vivo at 10 mg/kg (Serum-Lipoproteine; [2]): -1% | change in vivo at 10 mg/kg (Serum-Lipoproteine; [3]): -52% | change in vivo at 10 mg/kg (Serum-Lipoproteine; [4]): -24%

Cc1ccc(Cn2ccnc2)cc1 [1-(4-Methyl-benyl)-imidazol, 1-(4-Methylbenzyl)-imidazol, reference compound]
unerwünschte Beeinflussung der Leber ([1]; rat, in vivo): massive Hepatomegalie mit massiven Neutralfett- und Cholesterineinlagerungen | change in vivo at 3 mg/kg (Serum-Lipoproteine; [5]): 11% | change in vivo at 3 mg/kg (Serum-Lipoproteine; [2]): 18% | change in vivo at 3 mg/kg (Serum-Lipoproteine; [3]): -5% | change in vivo at 3 mg/kg (Serum-Lipoproteine; [4]): 10% | change in vivo at 10 mg/kg (Serum-Lipoproteine; [5]): 16% | change in vivo at 10 mg/kg (Serum-Lipoproteine; [2]): 22% | change in vivo at 10 mg/kg (Serum-Lipoproteine; [3]): -3% | change in vivo at 10 mg/kg (Serum-Lipoproteine; [4]): -23% | change in vivo at 30 mg/kg (Serum-Lipoproteine; [5]): -44% | change in vivo at 30 mg/kg (Serum-Lipoproteine; [2]): -24% | change in vivo at 30 mg/kg (Serum-Lipoproteine; [3]): -90% | change in vivo at 30 mg/kg (Serum-Lipoproteine; [4]): -100%

Cc1cc(Cn2ccnc2)cc(C)c1OCc1ccc(C2(C(C)(C)C)OCCO2)cc1 [Beispiel 1.52]
change in vivo at 30 mg/kg (Serum-Lipoproteine; [3]): -23% | change in vivo at 30 mg/kg (Serum-Lipoproteine; [4]): -36%

CC(C)c1cc(Cn2ccnc2)cc(C(C)C)c1OCc1ccc(C(O)C(C)(C)C)cc1 (centres unmarked) [Beispiel 2.4]
change in vivo at 30 mg/kg (Serum-Lipoproteine; [5]): -12% | change in vivo at 30 mg/kg (Serum-Lipoproteine; [3]): -38% | change in vivo at 30 mg/kg (Serum-Lipoproteine; [4]): -50%

C=CCc1cc(Cn2ccnc2)cc(C)c1OCc1ccc(C(=O)C(C)(C)C)cc1 [Beispiel 1.2]
change in vivo at 30 mg/kg (Serum-Lipoproteine; [2]): 9% | change in vivo at 30 mg/kg (Serum-Lipoproteine; [3]): -39% | change in vivo at 30 mg/kg (Serum-Lipoproteine; [4]): -31%
